Assay results as given in patent US20180200392A1, “DETECTION AND TREATMENT OF RENAL CELL CARCINOMA WITH A SLC6A3 LIGAND LINKED TO A LABEL, CYTOTOXIC OR IMMUNO[…]” (Akuru Pharma AB, priority 2015, published 2018).

How the values were obtained:
ccRCC cell lines = details: 7 nM [3H]dopamine; uptake correlates with SLC6A3 expression level
Protocol: (§1) Uptake experiments were performed in cells cultivated in 12-well plates at 37° C. The cells of interest were seeded at 80.000 cells/well 48 h before the uptake experiment was performed. The wells were washed in 1×PBS, followed by a wash in 1 ml of assay buffer (Hanks Balanced Salt Solution (HBSS) with CaCl2 and MgCl2, without phenol red supplemented with 10 mM HEPES, pH 7.4) at 37° C. and then incubated with 0.5 ml of buffer for 5 min. […] All uptake experiments were stopped by removing the uptake buffer and adding 1 ml of ice-cold assay buffer to each well and immediately aspirating the buffer and washing three additional times with 1 ml of ice-cold buffer. The incorporated radioactivity was extracted by solubilising the cells with 1% Triton-X for 1 h at R.T, 6 ml of scintillation fluid was thereafter added. The amount of radioactivity was measured with a Tri-carb 2810TR liquid scintillation analyzer (Perkin Elmer).

SLC6A3 = SLC6A3 (Homo sapiens, UniProt Q01959); experiment: [3H]dopamine uptake in ccRCC cell lines in the presence of specific SLC6A3 inhibitors; details: GBR12935 30 nM (SKRC10); GBR12909 10-90 nM (KMRC3, SNU-349); 1 h pre-incubation, 5 min uptake; FIG. 8 A-C
Protocol: Data presented as mean±SEM.
as §1

KMRC-3 cells = experiment: SPECT/CT imaging of mice with orthotopically injected KMRC-3 ccRCC cells; assay type: in vivo; details: 5.36 MBq injected 13 weeks after cell injection, imaged after 1 h and 35 min, FIG. 4
Protocol: FIG. 4: SPECT/CT images of a mouse injected with 5.36 MBq (^123I-Ioflupan).
ccRCC cell line KMRC-3 cells were injected orthotopically in mice, 2*10^6 cells in 40 ul PBS. After 13 weeks the mice were injected with 5.36 MBq ^123I-Ioflupan and analysed by SPECT/CT imaging after 1 h and 35 min.

[1] = in vivo; cited from earlier work

Chain of SLC6A3 (Q01959 whole entry): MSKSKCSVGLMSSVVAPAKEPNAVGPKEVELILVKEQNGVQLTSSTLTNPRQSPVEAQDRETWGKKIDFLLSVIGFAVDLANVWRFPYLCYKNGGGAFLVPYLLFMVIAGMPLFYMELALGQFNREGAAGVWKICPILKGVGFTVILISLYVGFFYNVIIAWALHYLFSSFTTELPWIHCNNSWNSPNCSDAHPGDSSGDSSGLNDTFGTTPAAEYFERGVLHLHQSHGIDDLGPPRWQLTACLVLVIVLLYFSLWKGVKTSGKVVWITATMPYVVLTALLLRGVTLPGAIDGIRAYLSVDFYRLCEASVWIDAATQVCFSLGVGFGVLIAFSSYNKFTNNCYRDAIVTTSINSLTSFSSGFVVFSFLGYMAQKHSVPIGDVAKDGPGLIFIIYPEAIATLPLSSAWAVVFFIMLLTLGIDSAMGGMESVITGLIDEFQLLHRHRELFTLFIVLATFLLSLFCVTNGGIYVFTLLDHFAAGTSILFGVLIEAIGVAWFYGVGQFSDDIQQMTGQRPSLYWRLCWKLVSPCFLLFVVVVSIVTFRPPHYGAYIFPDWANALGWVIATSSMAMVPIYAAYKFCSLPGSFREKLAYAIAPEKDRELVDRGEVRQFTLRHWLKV
Protocol for primary ccRCC cells: as §1

Question: With `NCCc1ccc(O)c(O)c1` [[H^3]dopamine] as the compound, how does the “uptake of [3H]dopamine by primary ccRCC cells compared to primary normal cortex cell” value (primary ccRCC cells; 7 nM [3H]dopamine, 1-20 min, 37° C., FIG. 3 and FIG. 7A) read?
Answer: enhanced uptake

Question: What about the “uptake of [3H]dopamine by ccRCC cell lines” value (ccRCC cell lines) of the same compound?
Answer: take up

Question: For `c1ccc(CCCN2CCN(CCOC(c3ccccc3)c3ccccc3)CC2)cc1` [GBR12935], which “amount of [3H]-dopamine taken up by ccRCC cells in presence of inhibitor” value (SLC6A3) is on record?
Answer: clearly diminish

Question: For `NCCc1ccc(O)c(O)c1` [unlabelled dopamine, dopamine], which “[3H]dopamine uptake of primary ccRCC tumor cells in response to competitive unlabelled dopamine” value (primary ccRCC cells; 7 nM [3H]dopamine with 2 uM or 20 uM unlabelled dopamine for 5 min, FIG. 7A-B) is on record?
Answer: decreased uptake

Question: What does the source list for `COC(=O)[C@@H]1C2CCC(C[C@@H]1c1ccc(I)cc1)N2CCCF` (stereo partly drawn) [Ioflupane (^123I), [^123I] N-ω-fluoropropyl-2β-carbomethoxy-3β-(4-iodophenyl)nortropane]?
Answer: uptake in contralateral kidney lacking injected tumor cells (SPECT/CT) (KMRC-3 cells): no enhanced uptake; uptake in kidney orthotopically injected with KMRC-3 cells (SPECT/CT) (KMRC-3 cells): clearly display enhanced uptake; uptake in contralateral kidney lacking injected tumor cells (SPECT/CT) (KMRC-3 cells; listed as 123I-Ioflupan): no signal could be detected; uptake in kidney orthotopically injected with KMRC-3 cells (SPECT/CT) (KMRC-3 cells; listed as 123I-Ioflupan): uptake

Question: With `Fc1ccc(C(OCCC2CCN(Cc3ccc(I)cc3)CC2)c2ccc(F)cc2)cc1` [FMIP, 4-(2-(bis(4-fluorophenyl)methoxy)ethyl)-1-(4-iodobenzyl)piperidine] as the compound, how does the “passage of the blood-brain barrier” value [1] read?
Answer: does not pass the blood-brain barrier
